From paper PMC9266561, “1,3-Benzodioxole Derivatives Improve the Anti-Tumor Efficiency of Arsenicals” (International Journal of Molecular Sciences, 2022) come the findings set out here.

Where two headings read alike, the source gives them in different places. A value given as a limit tells only on which side of the number the result lay.

In one data set the test system is cancer cells. Kind of data set: MTT assay, cancer cell lines taken together. The data set is classed as cell-based. As for the experimental part:
The bioactivity of all the synthetic compounds was evaluated by a MTT assay (Table 1, Tables S1 and S2) against two leukemia cell lines, Molm-13 and NB4; two solid tumor cell lines, HeLa (human cervix cell line) and 4T1 (breast cancer cell line); and two normal cell lines, COS-7 (African green monkey kidney cell line) and rat PBMC (peripheral blood mononuclear cell line).
Cells were cultured in 96-well plates overnight, followed by adding 80 μL of a related medium containing compounds of different concentrations and dissolved in DMSO for 24 h or 48 h. Then, 40 μL of MTT (2.5 mg/mL) was added and the cells were incubated for another 4 h. The cells were then dissolved in 100 μL of 10% SDS solution or DMSO to release and dissolve the purple MTT products, followed by absorbance detection (BioTek, Winooski, VT, USA).

In another data set the test system is Molm-13. Briefly: cells. The data set is classed as cell-based.
In the next data set the test system is NB4. Briefly: cells. The data set is classed as cell-based.
In the next data set the test system is 4T1. Kind of data set: cells. The data set is classed as cell-based.
The subject of a further data set is HeLa. Kind of data set: cells. It counts as cell-based, human.
A further data set deals with COS-7. Kind of data set: cells. It counts as cell-based, African green monkey.
Another data set relates to PBMC. Kind of data set: cells. The data set is classed as cell-based, rat.
A further data set concerns TrxR. Kind of data set: Cellular TrxR activity of 4T1 cells. The data set is classed as cell-based. The settings on record: 12 h incubation.
Data set [1] concerns 4T1 cells with TrxR knocked down. Kind of data set: MTT assay of 4T1 cells with TrxR siRNA knock-down. The data set is classed as cell-based.
Data set [2] deals with Trx system (TrxR1, Trx1, TrxR2, Trx2). Briefly: Transcription of Trx system genes in 4T1 cells. The data set is classed as cell-based. The settings on record: 24 h, 1IC50 and 1.5IC50. The text has this:
See the methods in previous work.

Another data set deals with 4T1 cells. Kind of data set: ROS level by DCFH-DA in 4T1 cells. It counts as cell-based. As for the experimental part:
The 4T1 cells treated with the MAZ2 of 0.8 and 1.6 µM were seeded in 6-well plates for 3, 6, 9, 12, and 24 h. Then, the medium was removed and fresh medium with DCFH-DA (0.2 µM) was added, followed by 30 min of incubation. Next, cells were collected and washed twice with PBS. Data were collected by a C6 flow cytometer (BD Biosciences, Franklin Lakes, New Jersey, USA).
The 4T1 cells treated with the MAZ2 of 0.8 and 1.6 µM were cultured in 1 cm dishes specially designed for confocal tests. Nine hours later, DCFH-DA was added for confocal tests.

In another data set the test system is GSH. Briefly: GSH content. The data set is classed as cell-based.
The next data set deals with Molm-13 and 4T1 cells. Kind of data set: MDA content (lipid peroxidation). It counts as cell-based. The conditions noted are these: 6 and 12 h. How it is done:
The Molm-13 and 4T1 cells were cultured in 6-well plates for 6 and 12 h, followed by an MDA test according to the manufacturer’s instructions.

In a further data set the test system is Molm-13 cells. Briefly: Apoptosis assay by flow cytometry. It counts as cell-based. The settings on record: 0.2, 0.3 and 0.4 µM, 24 h. As for the experimental part: The Molm-13 cells were cultured with 0.2, 0.3, and 0.4 µM MAZ2 for 24 h; then, the cells were collected and stained using annixin V-FITC and PE for 30 min. The separation lines were determined by single staining.

For another data set, the system named is 4T1 tumors. Kind of data set: 4T1 tumor syngeneic model in Balb/C mice. The conditions noted are these: for average tumor weight reduced by: two administrations, day 26. The data set is classed as in vivo. How it is done:
To confirm the bioactivity of MAZ2 in vivo, the tumor growth inhibition in 4T1 tumor syngeneic models in Balb/C mice was investigated (Figure 4A). When tumors grew to about 100 mm^3, the mice were divided into three groups; namely, the control, 1 mg/kg of MAZ2, and 1.5 mg/kg of MAZ2. Either a vehicle or the MAZ2 was injected intraperitoneally once a week. […] Therefore, the experiments were terminated at day 26 after two administrations.
(§1) The mice (BALB/c, female, 5 weeks), purchased from Hubei Provincial Laboratory Animal Public Service Center, were injected with 0.1 mL of 4T1 cells (1 × 10^6/mL) in the right haunch. After the tumor grew to approximately 100 mm^3, the mice were randomly divided into three groups: control (PBS:DMSO = 8:2), 1 mg/kg, and 1.5 mg/kg. The MAZ2 was administrated once a week (i.p.) for two doses. The 1.5 mg/kg group had six mice, and the tumors of two mice disappeared after 8 days; that is, after one administration, the two tumors were almost eliminated. The body weight and tumor volume were measured every two days.
(§2) Fresh tumors and organs were minced quickly in an ice bath and homogenized in a pre-cooled Dounce Tissue Grinder (WHEATON). The homogenate was dissolved by RIPA with 0.1% PMSF. The protein concentration was determined by a BCA Protein Assay Kit (Beyotime, Shanghai, China). A total of 20–40 μg of proteins were separated by 8–12% SDS-PAGE according to the molecular weight of certain proteins, followed by being transferred onto the polyvinylidene difluoride membrane. Then, the membrane was blocked with 5% fat-free milk for 2 h, followed by incubation with primary antibodies and HRP-conjugated secondary antibodies. Then, the images were snapped by QuickChemi5100.

A short description of data set [3]: Side effects in 4T1 tumor-bearing mice. The data set is classed as in vivo. As for the experimental part: as §1
Blood samples for the blood cell content tests were collected from the eye socket veins of the mice.
as §2
The 5 organs were formalin-fixed for 24 h immediately after the mice were sacrificed, and decalcified for 3.5 h, paraffin-embedded, cut, dewaxed, and hydrated. Some samples were stained with H&E. The pictures in the results were magnified by 400× and the scale bar was 50 µm.

For data set [4] the following is noted: rat, in vivo.
The nature of data set [5]: Arsenic content of viscera and tumor by ICP-MS. The conditions noted are these: mouse, in vivo.

In the case of `O=C(O)c1ccc2c(c1)OCO2` [1,3-benzodioxole derivative, piperonylic acid], the “anti-proliferation activity to cancer cells” value in the data set with cancer cells (even at a high dosage, Figure S2) was “no anti-proliferation activity”.
For the compound `COc1ccc(C(=O)Nc2ccc([As]3SCCCS3)cc2)cc1` [MAZ2], the IC50 with Molm-13 (read-out: IC50 Molm 24 h) came out at 200 nM; with Molm-13 (read-out: IC50 Molm 48 h) it was 100 nM; in the data set on NB4 (read-out: IC50 NB4 24 h), 400 nM; in the data set on NB4 (read-out: IC50 NB4 48 h) it was 300 nM; with 4T1 (read-out: IC50 4T1 24 h), 800 nM; in the data set on 4T1 (read-out: IC50 4T1 48 h), 400 nM. Besides, the IC50 stood at 400 nM in the data set on HeLa (read-out: IC50 HeLa 24 h); 300 nM in the data set on HeLa (read-out: IC50 HeLa 48 h); 5200 nM in the data set with COS-7 (read-out: IC50 COS-7 24 h); 3300 nM in the data set with COS-7 (read-out: IC50 COS-7 48 h); 7600 nM in the data set with PBMC (read-out: IC50 PBMC 24 h); 6900 nM with PBMC (read-out: IC50 PBMC 48 h). The IC50 with cancer cells (all cancer cell lines) was below 1000 nM. Also, the “TrxR activity of the 4T1 cells” value in the data set on TrxR was “sharply reduced activity”. In addition, in data set [1], the “change of IC50 value after TrxR was knocked down” value turned out to be 5.5 fold. Further, the “transcription of the Trx system” value in data set [2] was “decreased the transcription of the Trx system”. In the data set with 4T1 cells, the “incubation time at which the ROS peak was reached” value was found to be 9 h. For the same compound, the ROS level entry in the data set with 4T1 cells (0.8 and 1.6 µM) was “rose sharply in a dosage-dependent manner”. Also, the “influence on the GSH content” value in the data set on GSH is on record as “very little influence”. Also, the MDA content entry in the data set with Molm-13 and 4T1 cells was “increased acutely and dosage-dependently”. In the data set on Molm-13 cells, the apoptosis induction result was “induced apoptosis in a dosage-dependent manner”. For the same compound, the “average tumor weight reduced by” value in the data set with 4T1 tumors (1 mg/kg i.p. once a week) came to 30%; in the data set on 4T1 tumors (1.5 mg/kg i.p. once a week) it was 15%. For the same compound, the “tumor growth (tumor volume)” value in the data set with 4T1 tumors (1 mg/kg or 1.5 mg/kg i.p. once a week) is “completely reverse the growth of tumors and gradually eliminate tumors”. Further, in the data set on 4T1 tumors (1.5 mg/kg i.p. once a week, after two weeks), the tumors eliminated entry is reported as “two tumors in the mice belonging to the 1.5 mg/kg MAZ2 group were eliminated”. Further, the “TrxR and Trx content of tumors by western blot” value with 4T1 tumors (tumors of treated mice) is “reduced the TrxR1 content slightly and reduced the Trx1 content by a large amount”. Moreover, the “body weight of the mice” value in data set [3] (1 and 1.5 mg/kg i.p. once a week) was “no obvious impact on the body weight”. In addition, the “blood cell counts (WBC, NEUT, LYMPH, MONO)” value in [3] (tumor-bearing mice versus normal mice) is “lowered the counts of blood cells and reversed abnormalities in the hematological system”. Further, in data set [3] (two MAZ2-administered groups), the “H&E staining of heart, liver, spleen, lungs, kidneys” value was “showed healthy organs”. For the same compound, the “TrxR content of the liver and spleen” value in [3] (western blot) is listed as “no changes”. Further, the “blood arsenic content over time” value in data set [4] is “decreased slowly and remained at high levels even after 2 days”. In data set [5], the “arsenic content of tumor and viscera” value is reported as “gathered in the tumor instead of the viscera”.
